Assay results reported in article PMC8617031, “Development of a BCL-xL and BCL-2 dual degrader with improved anti-leukemic activity,” (Nature Communications, 2021).
Where “and” joins values, the source holds several entries; their conditions need not be identical. Equal values may be shown once.

Tests used:
[1] = biological target: T1, BCL-2/PROTAC/VCB ternary complex (Homo sapiens, UniProt P10415+P40337); test: AlphaLISA ternary complex formation, cell-free, BCL-2; assay type: binding; details: for in vitro ternary complex formation with BCL-2 (in words): AlphaLISA, cell-free, Fig. 2d, 3f; for AlphaLISA signal, BCL-2/PROTAC/VCB: Fig. 2d raw Alpha reads
T1 construct: pGEX-6P-1-VHL(54-213) (pDL2200) was constructed through Gibson assembly method; made in house; host or cells: bacterial culture (LB broth, IPTG induction)
T1 sequence (P10415 1-211 limits assumed): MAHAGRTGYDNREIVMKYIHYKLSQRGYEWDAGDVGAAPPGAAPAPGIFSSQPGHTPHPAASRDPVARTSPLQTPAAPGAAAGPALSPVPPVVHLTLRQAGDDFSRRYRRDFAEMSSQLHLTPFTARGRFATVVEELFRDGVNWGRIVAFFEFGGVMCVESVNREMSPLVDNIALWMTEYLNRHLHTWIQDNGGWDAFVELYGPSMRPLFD
T1 sequence (P40337 54-213 limits assumed): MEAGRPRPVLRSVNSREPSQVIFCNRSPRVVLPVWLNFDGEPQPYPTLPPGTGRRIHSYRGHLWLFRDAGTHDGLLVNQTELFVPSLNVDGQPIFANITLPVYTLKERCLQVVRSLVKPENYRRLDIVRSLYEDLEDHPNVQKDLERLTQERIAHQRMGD
T1 sequence (Q15369 17-112 partner limits assumed): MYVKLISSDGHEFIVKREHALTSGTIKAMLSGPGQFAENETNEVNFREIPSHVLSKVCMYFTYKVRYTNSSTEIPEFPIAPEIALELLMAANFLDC
T1 sequence (Q15370 whole entry partner): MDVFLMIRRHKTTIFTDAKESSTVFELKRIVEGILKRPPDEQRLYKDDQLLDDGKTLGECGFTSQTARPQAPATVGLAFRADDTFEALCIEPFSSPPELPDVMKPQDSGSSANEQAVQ
Method: (§1) AlphaLISA assay was used to evaluate the in vitro ternary complex formation between target proteins (BCL-xL or BCL-2), PROTAC and E3 ligase (VCB complex). In each well, 5 nM His-tagged BCL-xL or BCL-2 proteins and 5 nM GST-VCB complex was incubated with varying concentrations of compounds in fourfold serial dilutions, to a final volume of 40 µl in a 96-well PCR plate. After incubation at room temperature for 30 min, 5 µl alpha glutathione-donor beads (Cat. No. 6765300, PerkinElmer) were added to each well (20 µg/ml final concentration) and incubated for another 15 min. Thereafter, 5 µL 6× His-acceptor beads were added to each well (20 µg/ml final concentration) and incubated for an additional 45 min at room temperature. Thereafter, 17 µl of each sample was transferred in adjacent wells of a 384-well proxy plate, and the plate was scanned using the Alpha program on Biotek’s Synergy Neo2 multimode plate reader. The data were expressed as average AlphaLISA signal and plotted against different concentrations of compounds using GraphPad Prism 9 software.

BCL-2 = biological target: T2, BCL-2 (Homo sapiens, UniProt P10415); test: BCL-2 degradation by immunoblot in 293T cells; assay type: cell-based; details: for Dmax: HEK-293T
T2 construct: endogenous in cells
T2 sequence (P10415 whole entry): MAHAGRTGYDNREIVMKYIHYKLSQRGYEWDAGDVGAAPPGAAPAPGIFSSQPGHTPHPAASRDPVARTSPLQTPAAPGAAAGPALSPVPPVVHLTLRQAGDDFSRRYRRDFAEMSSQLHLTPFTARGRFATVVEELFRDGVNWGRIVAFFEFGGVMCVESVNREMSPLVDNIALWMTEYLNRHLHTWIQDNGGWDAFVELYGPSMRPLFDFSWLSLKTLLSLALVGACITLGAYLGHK
Method: (§2) The DC50 and Dmax were calculated using Prism based on the ImageJ-quantified western blots in Supplementary Fig. 4. c, d AlphaLISA assay to determine the formation of BCL-xL/PROTAC/VHL-ELOC-ELOB (VCB) (c) or BCL-2/PROTAC/VCB (d) ternary complex in a cell-free condition. Data represent the mean of a single experiment with 2 technical replicates. Similar results were obtained in one more independent experiment. e, f NanoBRET assays evaluating intracellular BCL-xL/PROTAC/VCB (e) or BCL-2/PROTAC/VCB (f) ternary complex formation. […] Data are expressed as mean ± s.e.m. of three biological replicates. Source data are provided as a Source data file.
(§3) Representative immunoblots are shown in (a–d) and β-actin was used as a loading control in all immunoblot analyses. The normalized protein content in the immunoblots is presented as mean values ± s.e.m. (n = 3 biologically independent experiments) in the bar graph (bottom panel). e, f The formation of BCL-xL/PROTAC/VCB (e) and BCL-2/PROTAC/VCB (f) ternary complexes in a cell-free condition was determined by AlphaLISA assay. Data represent the mean of a single experiment with 2 technical replicates. […] Source data are provided as a Source data file.
(§4) Cells were collected, washed once with ice-cold phosphate-buffered saline, pH 7.2 (PBS, cat. no. 20012027; Thermo Fisher Scientific) and lysed in RIPA lysis buffer (Cat. No. BP-115DG, Boston Bio Products, Ashland, MA, USA) supplemented with protease and phosphatase inhibitor cocktails (Cat. No. PPC1010, Sigma-Aldrich, St. Louis, MO, USA) through sonication. The samples were centrifuged at 14,000 r.p.m. for 5 min and the supernatants were transferred into a new tube. The protein concentration in the supernatants was determined using the Pierce BCA protein Assay kit (cat. no. 23225, Thermo Fisher Scientific). The protein concentration was normalized, and the samples were reduced in 4× Laemmli’s SDS-sample buffer (cat. no. BP-110R, Boston Bio Products) and denatured at 95 °C for 5 min. An equal amount of protein samples (20–40 μg per lane) were resolved using precast 4–20% Tris-glycine gels (Mini-PROTEAN TGX, cat. no. 456–1094, Bio-Rad), and resolved proteins were transferred onto 0.2-µm pore size polyvinylidene difluoride (PVDF) blotting membranes (cat. no. LC2002, Thermo Fisher Scientific) using mini trans-blot electrophoretic transfer cell (Bio-Rad). The membranes were blocked with non-fat dry milk (5% wt/vol) in 1× Tris-buffered saline-Tween-20 (TBST, cat. no. J77500, Affymetrix) for 1 h at room temperature, and were subsequently probed with primary antibodies at a predetermined optimal concentration in non-fat dry milk (5% wt/vol in TBST) overnight at 4 °C. The membranes were washed three times (5 min each) in TBST and then incubated with horse radish peroxidase (HRP)-conjugated secondary antibodies for 1 h at room temperature. Following sufficient washing with TBST, the membranes were exposed with chemiluminescent HRP substrate (cat. no. WBKLS0500, MilliporeSigma), and the signal was detected using the ChemiDoc MP Imaging System (Bio-Rad) and quantified using the ImageJ (v1.53a) software from NIH.

BCL-xL = biological target: T3, BCL-xL (Homo sapiens, UniProt Q07817); test: BCL-xL degradation by immunoblot in 293T cells; assay type: cell-based; details: for DC50: four concentrations, Fig. 2b, read-out: BCL-xL DC50; for Dmax: HEK-293T
T3 construct: endogenous in cells
T3 sequence (Q07817 whole entry): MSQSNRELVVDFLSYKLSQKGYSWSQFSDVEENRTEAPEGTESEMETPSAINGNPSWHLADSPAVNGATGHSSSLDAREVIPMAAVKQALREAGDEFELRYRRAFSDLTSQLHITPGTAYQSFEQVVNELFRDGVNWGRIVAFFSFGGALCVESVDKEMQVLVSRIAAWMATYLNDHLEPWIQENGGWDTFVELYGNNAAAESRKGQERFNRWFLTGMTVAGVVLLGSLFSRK
Method: as §2, §3, §4

[2] = biological target: T4, BCL-xL/PROTAC/VHL-ELOC-ELOB (VCB) ternary complex (Homo sapiens, UniProt P40337+Q07817); test: AlphaLISA ternary complex formation, cell-free, BCL-xL; assay type: binding; details: for in vitro ternary complex formation with BCL-xL (in words): AlphaLISA, cell-free, Fig. 2c, 3e; for AlphaLISA signal, BCL-xL/PROTAC/VCB: Fig. 2c raw Alpha reads
T4 construct: pGEX-6P-1-VHL(54-213) (pDL2200) was constructed through Gibson assembly method; made in house; host or cells: bacterial culture (LB broth, IPTG induction)
T4 sequence (Q07817 1-212 limits assumed): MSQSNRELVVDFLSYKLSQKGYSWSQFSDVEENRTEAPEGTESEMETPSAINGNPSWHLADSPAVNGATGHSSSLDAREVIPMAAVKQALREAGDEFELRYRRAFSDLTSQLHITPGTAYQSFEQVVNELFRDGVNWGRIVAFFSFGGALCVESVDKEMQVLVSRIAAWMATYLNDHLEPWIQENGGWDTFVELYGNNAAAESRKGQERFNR
T4 sequence (P40337 54-213 limits assumed): as the sequence (P40337 54-213 limits assumed) above
T4 sequence (Q15369 17-112 partner limits assumed): as the sequence (Q15369 17-112 partner limits assumed) above
T4 sequence (Q15370 whole entry partner): as the sequence (Q15370 whole entry partner) above
Method: as §1

[3] = compound 200000 nM, 2 technical replicates

| SMILES | in vitro ternary complex formation with BCL-2 (in words) [1] | AlphaLISA signal, BCL-2/PROTAC/VCB ([1]; compound 0.191 nM) | AlphaLISA signal, BCL-2/PROTAC/VCB ([1]; compound 0.763 nM) | AlphaLISA signal, BCL-2/PROTAC/VCB ([1]; compound 3.052 nM) | AlphaLISA signal, BCL-2/PROTAC/VCB ([1]; compound 12.207 nM) | AlphaLISA signal, BCL-2/PROTAC/VCB ([1]; compound 48.828 nM) | AlphaLISA signal, BCL-2/PROTAC/VCB ([1]; compound 195.31 nM) | AlphaLISA signal, BCL-2/PROTAC/VCB ([1]; compound 781.25 nM) | AlphaLISA signal, BCL-2/PROTAC/VCB ([1]; compound 3125 nM) | AlphaLISA signal, BCL-2/PROTAC/VCB ([1]; compound 12500 nM) | Dmax (BCL-2) [%] | DC50 (BCL-xL; 293T cells, 16 h) [nM] | Dmax (BCL-xL) [%] | in vitro ternary complex formation with BCL-xL (in words) [2] | AlphaLISA signal, BCL-xL/PROTAC/VCB ([2]; compound 0.191 nM) | AlphaLISA signal, BCL-xL/PROTAC/VCB ([2]; compound 0.763 nM) | AlphaLISA signal, BCL-xL/PROTAC/VCB ([2]; compound 3.052 nM) | AlphaLISA signal, BCL-xL/PROTAC/VCB ([2]; compound 12.207 nM) | AlphaLISA signal, BCL-xL/PROTAC/VCB ([2]; compound 48.828 nM) | AlphaLISA signal, BCL-xL/PROTAC/VCB ([2]; compound 195.31 nM) | other results |
| --- | --- | --- | --- | --- | --- | --- | --- | --- | --- | --- | --- | --- | --- | --- | --- | --- | --- | --- | --- | --- | --- |
| Cc1ncsc1-c1ccc([C@H](C)NC(=O)[C@@H]2C[C@@H](O)CN2C(=O)[C@@H](NC(=O)CCCC(=O)N2CCN(CC3(C)CCC(c4ccc(Cl)cc4)=C(CN4CCN(c5ccc(C(=O)NS(=O)(=O)c6ccc(N[C@H](CCN7CCOCC7)CSc7ccccc7)c(S(=O)(=O)C(F)(F)F)c6)cc5)CC4)C3)CC2)C(C)(C)C)cc1 (some centres unmarked) [PPC5] | stronger ternary complexes | 15183 and 13115 | 15317 and 19455 | 45755 and 47236 | 410345 and 373015 | 1136924 and 1140765 | 1286256 and 1221888 | 709163 and 786788 | 91120 and 92885 | 18341 and 15512 | 47 | 316 | 56 | stronger ternary complexes | 14064 and 15339 | 16647 and 16446 | 29664 and 30068 | 308120 and 297735 | 915794 and 868616 | 760327 and 820012 | BCL-xL degradation (in words) (BCL-xL; 293T cells, 16 h): partially degrade BCL-xL; AlphaLISA signal, BCL-xL/PROTAC/VCB ([2]; compound 781.25 nM): 680312 and 708753; AlphaLISA signal, BCL-xL/PROTAC/VCB ([2]; compound 3125 nM): 257573 and 298187; AlphaLISA signal, BCL-xL/PROTAC/VCB ([2]; compound 12500 nM): 45345 and 53654; AlphaLISA signal, BCL-xL/PROTAC/VCB ([2]; compound 50000 nM): 21182 and 20463 |
| Cc1ncsc1-c1ccc([C@H](C)NC(=O)[C@@H]2C[C@@H](O)CN2C(=O)[C@@H](NC(=O)CCCCCCCCC(=O)N2CCN(CC3(C)CCC(c4ccc(Cl)cc4)=C(CN4CCN(c5ccc(C(=O)NS(=O)(=O)c6ccc(N[C@H](CCN7CCOCC7)CSc7ccccc7)c(S(=O)(=O)C(F)(F)F)c6)cc5)CC4)C3)CC2)C(C)(C)C)cc1 (some centres unmarked) [PPC10] | much weaker ternary complexes | 13116 and 18939 | 20209 and 15528 | 15560 and 16756 | 23256 and 23865 | 69142 and 68261 | 218425 and 202826 | 114837 and 140035 | 20525 and 27108 | 13932 and 13026 | 69 | 12.1 | 81 | much weaker ternary complexes | 14831 and 16852 | 20168 and 16739 | 14541 and 18037 | 19478 and 16699 | 33222 and 36251 | 136427 and 150589 | AlphaLISA signal, BCL-2/PROTAC/VCB ([1]; compound 50000 nM): 10041 and 13037; AlphaLISA signal, BCL-2/PROTAC/VCB [1, 3]: 11345 and 10101; BCL-2 degradation (in words) (BCL-2; 293T cells, 16 h): also degraded BCL-2; DC50 (BCL-2; 293T cells, four concentrations, 16 h, Fig. 2b, read-out: BCL-2 DC50): 355 nM; AlphaLISA signal, BCL-xL/PROTAC/VCB ([2]; compound 781.25 nM): 133700 and 133335; AlphaLISA signal, BCL-xL/PROTAC/VCB ([2]; compound 12500 nM): 16869 and 17291; AlphaLISA signal, BCL-xL/PROTAC/VCB ([2]; compound 50000 nM): 11499 and 11443; AlphaLISA signal, BCL-xL/PROTAC/VCB [2, 3]: 9101 and 11295 |
